The values below come from patent US6967196B1, “Sulfonamide compounds and uses thereof” (Bristol-Myers Squibb Company, priority 1999, dated 2005).

Where a name gives a salt, the structure may show the parent alone. Bounds are passed on as bounds.

The first assay relates to amyloid β production in transfected H4 (human neuroglioma) cells stably expressing APP constructs. The assay is described as follows: In vitro cell-based assay of inhibitors of amyloid β production (ELISA). As to conditions: Homo sapiens, 16 h, transfected H4 cells stably expressing APP; approximately 16 hours incubation; amyloid β in medium by ELISA; read-out: ACTIVITY (IC50, inhibition of amyloid β production). The method, boiled down:
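Aβ secreted into the medium was determined by a two-antibody ELISA specific for the Aβ C-terminus, calibrated with known Aβ amounts. Before that, compounds (10-100 μM initially) were left on the cells for roughly 16 hours.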
(ELISA stands for enzyme-linked immunosorbent assay.)
With `C#Cc1ccccc1CN(c1ccccc1)S(=O)(=O)c1ccc(Cl)cc1` [Example 991, 4-chloro-N-(2-ethynylbenzyl)-N-phenylbenzenesulfonamide], the IC50 (as a rule, the concentration at which inhibition is half-maximal) was > 500 nM. The same measure, in the same setting: the value for `O=S(=O)(Cc1ccccc1)N(Cc1ccccc1OCCCN1CCCCC1)c1cc(Cl)ccc1Cl` [Example 992, N-(2,5-dichlorophenyl)(phenyl)-N-{2-[3-(1-piperidinyl)propoxy]benzyl}methanesulfonamide hydrochloride] was > 500 nM.

Take `O=S(=O)(c1ccc(Cl)cc1)N(Cc1ccccc1OCCCNC1CCCCC1)c1ccccc1` [Example 996, 4-chloro-N-{2-[3-(cyclohexylamino)propoxy]benzyl}-N-phenylbenzenesulfonamide hydrochloride]: the IC50 is > 500 nM. On the same count and under the same terms, the value for `O=[N+]([O-])c1ccc(SCCCOc2ccccc2CN(c2cc(F)ccc2F)S(=O)(=O)c2ccc(Cl)cc2)cc1` [Example 997, 4-chloro-N-(2,5-difluorophenyl)-N-(2-{3-[(4-nitrophenyl)sulfanyl]propoxy}benzyl)benzenesulfonamide] was > 500 nM; that for `O=[N+]([O-])c1ccc(CN(Cc2ccccc2OCCCN2CCCCC2)S(=O)(=O)c2ccc(Cl)cc2)cc1` [Example 998, 4-chloro-N-(4-nitrobenzyl)-N-{2-[3-(1-piperidinyl)propoxy]benzyl}benzenesulfonamide hydrochloride] was > 500 nM. Turning to `O=S(=O)(c1ccc(Cl)cc1)N(Cc1ccccc1OCCCN1CCc2ccccc2C1)c1ccccc1` [Example 999, 4-chloro-N-{2-[3-(3,4-dihydro-2(1H)-isoquinolinyl)propoxy]benzyl}-N-phenylbenzenesulfonamide], the IC50 was > 500 nM. Still for that read-out and setting: the value for `C=CCOc1ccccc1CN(c1ccccc1)S(=O)(=O)c1ccc(Cl)cc1` [Example 1001, N-[2-(allyloxy)benzyl]-4-chloro-N-phenylbenzenesulfonamide] was > 500 nM; that for `O=S(=O)(c1ccc(Cl)cc1)N(Cc1ccccc1OCCCN1CCCCC1)C1CC1` [Example 1003, 4-chloro-N-cyclopropyl-N-{2-[3-(1-piperidinyl)propoxy]benzyl}benzenesulfonamide hydrochloride] was > 500 nM. The same measure, in the same setting: with `O=S(=O)(c1ccccc1)N(Cc1ccccc1CCCCN1CCCCC1)c1ccccc1` [Example 1005, N-phenyl-N-{2-[4-(1-piperidinyl)butyl]benzyl}benzenesulfonamide] the figure was > 500 nM; with `C[C@H](c1ccc(F)cc1CCCC1=NCCCN1)N(c1cc(F)ccc1F)S(=O)(=O)c1ccc(Cl)cc1` [Example 1008, 4-chloro-N-(2,5-difluorophenyl)-N-((1R)-1-{4-fluoro-2-[3-(1,4,5,6-tetrahydro-2-pyrimidinyl)propyl]phenyl}ethyl)benzenesulfonamide hydrochloride], > 500 nM; with `O=S(=O)(c1ccc(Cl)cc1)N(Cc1cc(Cl)ccc1OCCCN1CCC(O)CC1)c1ccccc1` [Example 1011, 4-chloro-N-{5-chloro-2-[3-(4-hydroxy-1-piperidinyl)propoxy]benzyl}-N-phenylbenzenesulfonamide hydrochloride], > 500 nM. The same measure, in the same setting: the value for `O=S(=O)(c1ccc(Cl)cc1)N(Cc1ccccc1OCCCN1CCCCC1)C1CCc2ccccc21` (stereo not shown) [Example 1012, 4-chloro-N-(2,3-dihydro-1H-inden-1-yl)-N-{2-[3-(1-piperidinyl)propoxy]benzyl}benzenesulfonamide hydrochloride] was > 500 nM.

Take `O=S(=O)(c1ccc(Cl)cc1)N(CCc1ccccc1O)c1ccccc1` [Example 1015, 4-chloro-N-[2-(2-hydroxyphenyl)ethyl]-N-phenylbenzenesulfonamide]: the IC50 was > 500 nM. Same read-out and setting: with `O=S(=O)(c1ccc(Cl)cc1)N(Cc1ccccc1CCCCO)c1ccccc1` [Example 1016, 4-chloro-N-[2-(4-hydroxybutyl)benzyl]-N-phenylbenzenesulfonamide] the figure was > 500 nM; with `O=S(=O)(c1ccc(Cl)cc1)N(Cc1ccccc1OCCCS)c1ccccc1` [Example 1018, 4-chloro-N-phenyl-N-[2-(3-sulfanylpropoxy)benzyl]benzenesulfonamide], > 500 nM. Take `CSc1ccc(N(Cc2ccccc2OCCCN2CCCCC2)S(=O)(=O)c2ccc(Cl)cc2)cc1` [Example 1019, 4-chloro-N-[4-(methylsulfanyl)phenyl]-N-{2-[3-(1-piperidinyl)propoxy]benzyl}benzenesulfonamide hydrochloride]: the half-maximal inhibitory concentration (IC50) was > 500 nM. Still for that read-out and setting: with `O=S(=O)(c1ccc(Cl)cc1)N(Cc1ccccc1OCCCN1CCCCC1)C1Cc2ccccc2C1` [Example 1020, 4-chloro-N-(2,3-dihydro-1H-inden-2-yl)-N-{2-[3-(1-piperidinyl)propoxy]benzyl}benzenesulfonamide hydrochloride] the figure was > 500 nM.

Regarding `CC(C)(C)OC(=O)n1c(-c2ccccc2OCCCN2CCCCC2)cc2ccccc21` [Example 1021, tert-butyl 2-{2-[3-(1-piperidinyl)propoxy]phenyl}-1H-indole-1-carboxylate trifluoroacetate], the IC50 was > 500 nM. On the same count and under the same terms, with `O=S1(=O)c2cccc3cccc(c23)N1Cc1ccccc1OCCCN1CCCCC1` [Example 1024, 2-{2-[3-(1-piperidinyl)propoxy]benzyl}-2H-naphtho[1,8-cd]isothiazol 1,1-dioxide hydrochloride] the figure was > 500 nM; with `O=S(=O)(c1ccc(Cl)cc1)N(Cc1ccccc1OCCCCCCl)c1ccccc1` [Example 1026, 4-chloro-N-{2-[(5-chloropentyl)oxy]benzyl}-N-phenylbenzenesulfonamide], > 500 nM. The same measure, in the same setting: the value for `CS(=O)(=O)c1ccccc1N(Cc1ccccc1OCCCN1CCCCC1)S(=O)(=O)c1ccc(Cl)cc1` [Example 1027, 4-chloro-N-[2-(methylsulfonyl)phenyl]-N-{2-[3-(1-piperidinyl)propoxy]benzyl}benzenesulfonamide hydrochloride] was > 500 nM. For `COc1ccc(SCCCOc2ccccc2CN(c2cc(F)ccc2F)S(=O)(=O)c2ccc(Cl)cc2)cc1` [Example 1029, 4-chloro-N-(2,5-difluorophenyl)-N-(2-{3-[(4-methoxyphenyl)sulfanyl]propoxy}benzyl)benzenesulfonamide], the IC50 is > 500 nM. On to `O=S(=O)(c1ccccc1)N(Cc1ccccc1CCCN1CCCCC1)c1ccccc1` [Example 1031, N-phenyl-N-{2-[3-(1-piperidinyl)propyl]benzyl}benzenesulfonamide], for which the half-inhibitory concentration (IC50) was > 500 nM. `O=C(c1ccc(OC(F)(F)F)cc1)N1CCCCC1CCOc1ccccc1CN(c1cc(F)ccc1F)S(=O)(=O)c1ccc(Cl)cc1` (stereo not shown) [Example 1033, 4-chloro-N-(2,5-difluorophenyl)-N-[2-(2-{1-[4-(trifluoromethoxy)benzoyl]-2-piperidinyl}ethoxy)benzyl]benzenesulfonamide]: the half-inhibitory concentration (IC50) is > 500 nM. Same read-out and setting: with `CS(=O)(=O)c1cccc(N(Cc2ccccc2OCCCN2CCCCC2)S(=O)(=O)c2ccc(Cl)cc2)c1` [Example 1036, 4-chloro-N-[3-(methylsulfonyl)phenyl]-N-{2-[3-(1-piperidinyl)propoxy]benzyl}benzenesulfonamide hydrochloride] the figure was > 500 nM; with `O=S(=O)(c1ccc(Cl)cc1)N(Cc1ccccc1OCCCBr)c1ccccc1` [Example 1039, N-[2-(3-bromopropoxy)benzyl]-4-chloro-N-phenylbenzenesulfonamide], > 500 nM; with `O=S(=O)(c1ccc(Cl)cc1)N(Cc1ccccc1C#CCCO)c1ccccc1` [Example 1040, 4-chloro-N-[2-(4-hydroxy-1-butynyl)benzyl}-N-phenylbenzenesulfonamide], > 500 nM.

Take `O=C(CCc1ccccc1CN(c1ccccc1)S(=O)(=O)c1ccccc1)N1CCCCC1` [Example 1041, N-{2-[3-oxo-3-(1-piperidinyl)propyl]benzyl}-N-phenylbenzenesulfonamide]: the IC50 is > 500 nM.

Staying with this assay, now noted: transfected H4 cells stably expressing APP; approximately 16 hours incubation; amyloid β in medium by ELISA; read-out: ACTIVITY (IC50, inhibition of amyloid β production).
Regarding `O=C(OC[C@H](c1ccccc1)N(c1cc(F)ccc1F)S(=O)(=O)c1ccc(Cl)cc1)c1cccnc1` [Example 1006, (2S)-2-({[(4-chlorophenyl)sulfonyl]-2,5-difluoroanilino}-2-phenylethyl nicotinate], the IC50 was > 500 nM. Still for that read-out and setting: with `CC(=O)Nc1nc(C)c(S(=O)(=O)N(Cc2ccccc2OCCCN2CCCCC2)c2cc(Cl)ccc2Cl)s1` [Example 1022, N-{5-[(2,5-dichloro{2-[3-(1-piperidinyl)propoxy]benzyl}anilino)sulfonyl]-4-methyl-1,3-thiazol-2-yl}acetamide hydrochloride] the figure was > 500 nM. On the same count and under the same terms, the value for `O=S(=O)(c1ccc(Cl)cc1)N(Cc1c(OCCCN2CCCCC2)ccc2ccccc12)c1cc(F)ccc1F` [Example 1025, 4-chloro-N-(2,5-difluorophenyl)-N-(2-{2-[3-(1-piperidinyl)propoxy]-1-naphthyl}methyl)benzenesulfonamide hydrochloride] was > 500 nM; that for `O=S(=O)(c1ccc(Cl)cc1)N(Cc1ccccc1OCc1ccncc1)c1ccccc1` [Example 1030, 4-chloro-N-phenyl-N-[2-(4-pyrdinylmethoxy)benzyl]benzenesulfonamide hydrochloride] was > 500 nM; that for `O=S(=O)(c1ccc(F)cc1)n1c(-c2ccccc2OCCCN2CCCCC2)cc2ccccc21` [Example 1032, 2-{1-[(4-flurophenyl}sulfonyl]-1H-indol-2-yl}phenyl 3-(1-piperidinyl)propyl ether trifluoroacetate] was > 500 nM.

`C[N+]1(CCCOc2ccccc2CN(c2cc(Cl)ccc2Cl)S(=O)(=O)c2ccc(Cl)cc2)CCCCC1` [Example 1038, 1-{3-[2-((2,5-dichloro[(4-chlorophenyl)sulfonyl]anilino}methyl)phenoxy]propyl}-1-methylpiperidinium iodide]: the IC50 is > 500 nM.
